From article PMC6934184, “Selective DNA-PKcs inhibition extends the therapeutic index of localized radiotherapy and chemotherapy” (The Journal of Clinical Investigation, 2019)

Target: T1, CSF1R (FMS) (Homo sapiens, UniProt P07333)
T1 construct: purchased Thermo Fisher Scientific (Life Technologies) SelectScreen
Experiment: SelectScreen Z'LYTE
Assay type: biochemical
How it was run: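 Compound tested in SelectScreen activity assays, Z'LYTE for CSF1R, CDK1/cyclin B and MAP2K6 and Adapta for CAMK1. ATP for CAMK1 was listed as 10, and Km app was used for CSF1R. Results are expressed in percent.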

T1 sequence (P07333 20-972): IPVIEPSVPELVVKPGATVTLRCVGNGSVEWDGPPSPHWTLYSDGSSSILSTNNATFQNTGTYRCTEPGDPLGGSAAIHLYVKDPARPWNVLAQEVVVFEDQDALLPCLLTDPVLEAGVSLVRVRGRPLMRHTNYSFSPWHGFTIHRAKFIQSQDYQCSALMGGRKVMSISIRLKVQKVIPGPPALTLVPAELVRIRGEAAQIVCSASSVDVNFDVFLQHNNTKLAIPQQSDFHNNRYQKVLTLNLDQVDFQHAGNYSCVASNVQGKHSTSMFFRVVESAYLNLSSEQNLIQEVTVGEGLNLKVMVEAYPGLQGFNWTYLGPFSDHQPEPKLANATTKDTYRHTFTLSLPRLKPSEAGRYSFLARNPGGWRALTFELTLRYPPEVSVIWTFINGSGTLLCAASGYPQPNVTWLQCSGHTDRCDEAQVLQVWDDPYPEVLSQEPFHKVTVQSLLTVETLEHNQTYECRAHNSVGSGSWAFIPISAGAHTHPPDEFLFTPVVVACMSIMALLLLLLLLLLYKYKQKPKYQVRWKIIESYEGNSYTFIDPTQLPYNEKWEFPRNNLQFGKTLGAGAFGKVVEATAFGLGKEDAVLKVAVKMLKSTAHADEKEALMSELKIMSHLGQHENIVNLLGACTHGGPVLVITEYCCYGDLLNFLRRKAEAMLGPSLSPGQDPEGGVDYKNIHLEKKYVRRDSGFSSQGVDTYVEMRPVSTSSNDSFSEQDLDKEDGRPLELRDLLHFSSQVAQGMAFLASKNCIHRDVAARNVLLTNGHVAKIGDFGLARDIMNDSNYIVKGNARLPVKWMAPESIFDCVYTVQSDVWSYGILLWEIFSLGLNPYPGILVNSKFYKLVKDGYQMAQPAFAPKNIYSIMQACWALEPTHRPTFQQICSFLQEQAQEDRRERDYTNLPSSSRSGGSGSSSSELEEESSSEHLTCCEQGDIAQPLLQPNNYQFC

CN(C(=O)CN1CCOCC1)c1ccc2sc3c(-c4cccc5c(=O)cc(N6CC7CCC(C6)O7)oc45)cccc3c2c1 [NU5455]
inhibition at 1 µM: 4.3%
